In patent publication US7268212B2, “Ligand of G protein-coupled receptor protein and DNA thereof” (Takeda Pharmaceutical Company Limited, priority 2001, dated 2007):
No end group written: not given here.

Columns and labels:
bovine GPR7 = target: T1, bovine GPR7 (Bos taurus, UniProt Q8MJV3); assay: Intracellular cAMP production suppression activity on bovine GPR7-expressed CHO cells; assay type: cell-based; conditions: forskolin-promoted cAMP production; receptor-expressed CHO cells; read-out: IC50 (nM) bovine GPR7, cAMP production inhibition
T1 construct: expressed in transfected cells; host or cells: CHO cells
T1 sequence (Q8MJV3 1-331): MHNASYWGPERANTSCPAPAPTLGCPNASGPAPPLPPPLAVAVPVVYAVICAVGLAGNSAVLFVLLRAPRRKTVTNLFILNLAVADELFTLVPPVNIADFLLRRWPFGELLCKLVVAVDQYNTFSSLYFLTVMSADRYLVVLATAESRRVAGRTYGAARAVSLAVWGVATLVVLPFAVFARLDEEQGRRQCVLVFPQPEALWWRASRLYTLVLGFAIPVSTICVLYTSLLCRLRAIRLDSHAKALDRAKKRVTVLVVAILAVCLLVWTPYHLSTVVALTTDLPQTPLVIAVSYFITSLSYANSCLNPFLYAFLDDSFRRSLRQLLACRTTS
Procedure: The intracellular cAMP production suppression activity of peptides associated with various GPR7 ligands on CHO cells, in which human GPR7, bovine GPR8, human GPR8, human GPR8, bovine GPR8 and rat GPR7 were expressed, was examined. […] An assay buffer was prepared by adding 20 mM HEPES, pH7.4, 0.1% bovine serum albumin and 0.2 mM 3-isobutyl-1-methylxanthine (Sigma) to Hanks' Balanced Salt Solution (Gibco BRL). The plate incubated overnight was first washed twice with 150 μl of the assay buffer, and then exchanged with 150 μl of the assay buffer, followed by incubation for 30 minutes at 37° C. in 100% air. By adding 4 μM forskolin to the assay buffer, a buffer for sample dilution was prepared and the stock solution (10^−2 M of 10^−3 M) was diluted with the buffer thus obtained to prepare sample solutions in final concentrations of 10^−6 M, 10^−7 M, 10^−8 M, 10^−9 M and 10^−10 M. The plate incubated with the assay buffer for 30 minutes was taken out. After washing twice with the assay buffer, 50 μl of the assay buffer and then 50 μl of the sample solution were added thereto. Each sample was assayed in triplet. […] A difference between the maximum cAMP level and the cAMP level when each sample was added was calculated and the percentage of cAMP production level promoted by forskolin was worked out, which was made the cAMP production inhibition rate.

Wistar male rats = assay: Effect of GPR7 ligand on feed uptake in rat by lateral ventricular injection; assay type: in vivo; conditions: 10 nmols/rat into the lateral ventricle; from 2 hours after the administration; compared to the control group (distilled water)
Procedure: The effect of GPR7 ligand (GPR7L) on feed uptake in rat by lateral ventricular injection was examined. Rat was caged at room temperature of 25° C. while lighting for 8 to 20 o'clock. Mature Wistar male rats (300-320 g body weight upon surgery) were anesthetized with an intraperitoneal injection of 50 mg/kg pentobarbital and placed in a rat brain stereotaxic instrument. The level of incisor bar was 3.3 mm below the interaural line. The skull was exposed, and using a dental drill a hole was made on the bone for implantation of guide cannula AG-8 (inner diameter of 0.4 mm, outer diameter of 0.5 mm, EICOM Corporation). In addition, an anchor screw was buried at 3 positions around the hole. A stainless-steel guide cannula, AG-8, was inserted in such a manner that the tip was situated at the upper part of the lateral ventricle. Stereotaxic coordinates were taken from the atlas according to the atlas of Paxinos & Watson (1986) from bregma AP: −0.8 mm, L:1.5 mm and H:−4.5 mm. The guide cannula was secured to the skull using a dental cement and an anchor screw. […]
After the guide cannula was implanted, rats were caged for about a week to recover from surgical operation. […] The infusion was continued from 19:00 to 20:00 o'clock, and the feed uptake thereafter was measured with passage of time, using a feed uptake measuring device Feed-Scale (Columbus, Inc.).

IC50 (bovine GPR7): 1.2 nM
Sequence: WYKPTAGQGYYSVGRAAGLLSGFHRSPYA [Trp1-bovine GPR7L(29)]
feed uptake (Wistar male rats): significant increase in feed uptake
